# Reference: ChEMBL document CHEMBL1139998, “Design, synthesis, and binding studies of bidentate Zn-chelating peptidic inhibitors of glyoxalase-I” (Bioorg Med Chem Lett, 2007)
# Molecular target: T1, Glyoxalase I (Saccharomyces cerevisiae S288c, UniProt P50107)
# T1 sequence (P50107 whole entry): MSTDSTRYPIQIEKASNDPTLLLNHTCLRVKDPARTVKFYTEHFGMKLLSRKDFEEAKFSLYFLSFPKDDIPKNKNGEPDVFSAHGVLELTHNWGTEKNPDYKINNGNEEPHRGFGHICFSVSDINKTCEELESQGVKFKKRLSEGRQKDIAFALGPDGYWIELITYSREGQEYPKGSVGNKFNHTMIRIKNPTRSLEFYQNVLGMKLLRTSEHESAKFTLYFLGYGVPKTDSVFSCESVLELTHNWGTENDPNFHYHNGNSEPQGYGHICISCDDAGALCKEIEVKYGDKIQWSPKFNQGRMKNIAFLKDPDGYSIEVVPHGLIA
# Assay: Inhibition of yeast glyoxalase 1
row,Structure (SMILES),Ki
1,COC(=O)CC(=O)CC[C@H](NC(=O)CC[C@H](N)C(=O)O)C(=O)NCC(=O)O,112 µM
2,N[C@@H](CCC(=O)N[C@@H](CCC(=O)CC(=O)OCc1ccc(Br)cc1)C(=O)NCC(=O)O)C(=O)O,66.9 µM
